ChEMBL document CHEMBL1201862, “PubChem BioAssay data set” (2004)
Activity calls are given as the source filed them.

Columns and labels:
H9c2 = experiment: cells; type: functional, cell-based; conditions: Rattus norvegicus, H9c2, Myocardium;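 note: confirmatory concentration-response retest of ultra-high-throughput screening hits for modulation of myocardial damage; cell death induced by hydrogen peroxide oxidative stress; compound pretreatment for 60 min then peroxide exposure for 2 h; potency is for protecting the cells against peroxide damage rather than for killing them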
Procathepsin L = Procathepsin L (Homo sapiens, UniProt P07711)
Aspartyl aminopeptidase = target: T1, Aspartyl aminopeptidase (Plasmodium falciparum 3D7, UniProt Q8I2J3)
T1 sequence (Q8I2J3 whole entry): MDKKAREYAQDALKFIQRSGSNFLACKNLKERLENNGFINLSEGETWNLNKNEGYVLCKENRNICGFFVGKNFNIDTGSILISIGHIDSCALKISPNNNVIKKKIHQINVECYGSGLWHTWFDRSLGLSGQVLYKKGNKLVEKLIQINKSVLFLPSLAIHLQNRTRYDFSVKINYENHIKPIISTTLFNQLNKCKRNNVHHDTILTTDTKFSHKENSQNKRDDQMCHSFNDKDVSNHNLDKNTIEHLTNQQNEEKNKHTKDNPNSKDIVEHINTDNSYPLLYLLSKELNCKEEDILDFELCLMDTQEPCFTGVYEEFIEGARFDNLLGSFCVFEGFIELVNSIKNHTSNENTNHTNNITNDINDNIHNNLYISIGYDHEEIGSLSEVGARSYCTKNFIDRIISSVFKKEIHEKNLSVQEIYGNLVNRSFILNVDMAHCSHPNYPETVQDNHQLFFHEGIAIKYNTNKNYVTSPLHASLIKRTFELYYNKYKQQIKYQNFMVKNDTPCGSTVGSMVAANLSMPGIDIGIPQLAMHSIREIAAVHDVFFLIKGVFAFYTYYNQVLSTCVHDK

[1] = target: Photoreceptor-specific nuclear receptor (Homo sapiens, UniProt Q9Y5X4); type: functional;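 note: potency for compounds that break the NR2E3 corepressor complex and count as activators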
Streptococcus = experiment: Group A Streptococcus viability loss, dose response, counter-screen for streptokinase expression inhibitor project, luminescence, BacTiterGlo (AID 1915); type: functional, organism-based;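 note: potency for reduction of bacterial viability or growth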
[2] = target: Peroxisome proliferator-activated receptor gamma/Nuclear receptor corepressor 2 (Homo sapiens, UniProt P37231+Q9Y618); type: functional
[3] = target: NAD-dependent protein deacylase sirtuin-5, mitochondrial (Homo sapiens, UniProt Q9NXA8); experiment: SIRT5 desuccinylase inhibitors, dose response, biochemical, fluorescence imaging, cherry-pick, set 5 (AID 720591);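 note: desuccinylation of succinyl peptide AMC substrate read as fluorescence after trypsin release; potency of inhibitors that lower fluorescence and may act on trypsin instead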
[4] = test system: Streptococcus sp. 'group A'; experiment: growth inhibition of control SK(-) GAS strain, dose response, counter-screen for streptokinase expression inhibitor project, luminescence, kanamycin, BacTiterGlo, confirmation (AID 1900); type: functional, organism-based
Ion channel NompC [5] = target: T2, Ion channel NompC (Danio rerio, UniProt Q7T1G6); experiment: TRPML3 and TRPML2 channel agonists, cell-based, patch clamp, Fura-2 profiling panel, panel member TRPN1 Dose Response (AID 2116)
Ion channel NompC [6] = target: T2, Ion channel NompC; experiment: Fluorescence counterscreen assay for TRPML3 agonists: dose response cell-based high-throughput screening assay to identify agonists of the transient receptor potential channel N1 (TRPN1). [Related pubchem assays: 1526, 1424, 1448 ]; type: functional
Mucolipin-3 = target: T3, Mucolipin-3 (Homo sapiens, UniProt Q8TDD5); experiment: Dose response cell-based high-throughput screening assay for agonists of the transient receptor potential channel ML3 (TRPML3). [Related pubchem assays: 1526, 1424, 1448 ]; type: functional
T3 sequence (Q8TDD5 whole entry): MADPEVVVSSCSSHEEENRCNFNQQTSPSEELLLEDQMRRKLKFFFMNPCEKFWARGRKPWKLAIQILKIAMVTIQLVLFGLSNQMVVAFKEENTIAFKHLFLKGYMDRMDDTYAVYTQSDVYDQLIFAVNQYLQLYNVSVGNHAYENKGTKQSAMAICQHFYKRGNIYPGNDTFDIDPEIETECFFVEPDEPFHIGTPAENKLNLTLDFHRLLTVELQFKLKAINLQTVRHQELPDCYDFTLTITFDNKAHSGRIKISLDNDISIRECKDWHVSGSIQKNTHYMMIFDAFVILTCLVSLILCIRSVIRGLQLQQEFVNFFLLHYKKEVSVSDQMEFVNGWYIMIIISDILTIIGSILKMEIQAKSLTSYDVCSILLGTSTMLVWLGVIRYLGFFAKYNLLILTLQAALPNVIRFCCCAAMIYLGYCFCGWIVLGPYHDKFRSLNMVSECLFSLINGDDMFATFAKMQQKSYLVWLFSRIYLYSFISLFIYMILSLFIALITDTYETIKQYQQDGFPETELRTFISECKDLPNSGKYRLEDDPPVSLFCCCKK

Cytochrome P450 2C9 = Cytochrome P450 2C9 (Homo sapiens, UniProt P11712); conditions: Potency
Chain of Cytochrome P450 2C9 (P11712 whole entry): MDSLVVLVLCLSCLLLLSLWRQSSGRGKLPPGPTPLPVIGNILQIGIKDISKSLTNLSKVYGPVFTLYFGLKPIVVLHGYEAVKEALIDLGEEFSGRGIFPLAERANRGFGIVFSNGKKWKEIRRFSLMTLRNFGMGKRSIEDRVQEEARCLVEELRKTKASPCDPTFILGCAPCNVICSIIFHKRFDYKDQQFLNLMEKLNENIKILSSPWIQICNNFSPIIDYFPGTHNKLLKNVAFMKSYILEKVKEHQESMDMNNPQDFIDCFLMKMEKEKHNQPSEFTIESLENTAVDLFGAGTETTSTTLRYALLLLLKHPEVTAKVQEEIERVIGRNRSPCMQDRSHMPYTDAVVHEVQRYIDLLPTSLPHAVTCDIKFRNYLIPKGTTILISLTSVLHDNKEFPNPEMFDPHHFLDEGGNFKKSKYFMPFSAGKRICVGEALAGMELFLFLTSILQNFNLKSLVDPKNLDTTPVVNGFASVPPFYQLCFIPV

T2 sequence (Q7T1G6 whole entry): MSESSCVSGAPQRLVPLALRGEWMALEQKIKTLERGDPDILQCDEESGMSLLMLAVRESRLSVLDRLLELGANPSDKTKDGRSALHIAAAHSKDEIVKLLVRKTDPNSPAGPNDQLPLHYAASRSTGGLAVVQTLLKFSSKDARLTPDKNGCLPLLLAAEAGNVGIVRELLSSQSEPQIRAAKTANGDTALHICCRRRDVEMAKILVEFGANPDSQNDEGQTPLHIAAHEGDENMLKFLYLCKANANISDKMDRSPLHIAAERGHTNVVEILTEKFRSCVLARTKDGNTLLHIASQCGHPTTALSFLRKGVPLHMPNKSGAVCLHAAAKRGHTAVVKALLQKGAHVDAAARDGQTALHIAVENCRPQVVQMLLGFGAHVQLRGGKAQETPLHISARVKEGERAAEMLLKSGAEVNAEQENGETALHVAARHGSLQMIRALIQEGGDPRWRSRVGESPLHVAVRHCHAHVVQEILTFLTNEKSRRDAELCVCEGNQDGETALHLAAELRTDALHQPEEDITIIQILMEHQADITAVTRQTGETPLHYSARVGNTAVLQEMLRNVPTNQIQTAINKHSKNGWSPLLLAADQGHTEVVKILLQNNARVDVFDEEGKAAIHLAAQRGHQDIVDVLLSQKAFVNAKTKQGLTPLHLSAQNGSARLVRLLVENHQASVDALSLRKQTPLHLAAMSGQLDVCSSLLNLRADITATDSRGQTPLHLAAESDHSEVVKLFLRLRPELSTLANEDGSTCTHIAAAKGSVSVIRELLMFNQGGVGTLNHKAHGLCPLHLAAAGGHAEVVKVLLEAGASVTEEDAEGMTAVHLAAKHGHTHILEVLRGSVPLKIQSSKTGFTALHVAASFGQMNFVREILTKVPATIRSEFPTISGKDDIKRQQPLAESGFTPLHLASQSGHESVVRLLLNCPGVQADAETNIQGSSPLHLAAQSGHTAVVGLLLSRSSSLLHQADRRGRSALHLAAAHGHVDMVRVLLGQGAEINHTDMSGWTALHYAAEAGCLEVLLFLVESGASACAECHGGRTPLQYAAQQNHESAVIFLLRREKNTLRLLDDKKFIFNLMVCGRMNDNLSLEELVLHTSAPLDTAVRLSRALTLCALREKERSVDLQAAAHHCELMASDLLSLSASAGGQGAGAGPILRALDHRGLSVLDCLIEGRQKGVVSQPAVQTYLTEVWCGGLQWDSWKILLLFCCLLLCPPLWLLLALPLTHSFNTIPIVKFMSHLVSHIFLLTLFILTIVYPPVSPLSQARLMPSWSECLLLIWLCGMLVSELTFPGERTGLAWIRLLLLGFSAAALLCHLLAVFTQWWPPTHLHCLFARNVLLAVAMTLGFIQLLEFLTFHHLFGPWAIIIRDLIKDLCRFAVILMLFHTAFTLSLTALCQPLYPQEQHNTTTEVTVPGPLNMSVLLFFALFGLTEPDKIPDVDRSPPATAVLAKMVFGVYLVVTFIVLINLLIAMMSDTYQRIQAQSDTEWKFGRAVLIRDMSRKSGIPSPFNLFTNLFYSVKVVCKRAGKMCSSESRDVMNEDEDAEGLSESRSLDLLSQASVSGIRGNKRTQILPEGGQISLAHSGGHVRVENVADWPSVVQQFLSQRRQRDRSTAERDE
Chain of Photoreceptor-specific nuclear receptor (Q9Y5X4 whole entry): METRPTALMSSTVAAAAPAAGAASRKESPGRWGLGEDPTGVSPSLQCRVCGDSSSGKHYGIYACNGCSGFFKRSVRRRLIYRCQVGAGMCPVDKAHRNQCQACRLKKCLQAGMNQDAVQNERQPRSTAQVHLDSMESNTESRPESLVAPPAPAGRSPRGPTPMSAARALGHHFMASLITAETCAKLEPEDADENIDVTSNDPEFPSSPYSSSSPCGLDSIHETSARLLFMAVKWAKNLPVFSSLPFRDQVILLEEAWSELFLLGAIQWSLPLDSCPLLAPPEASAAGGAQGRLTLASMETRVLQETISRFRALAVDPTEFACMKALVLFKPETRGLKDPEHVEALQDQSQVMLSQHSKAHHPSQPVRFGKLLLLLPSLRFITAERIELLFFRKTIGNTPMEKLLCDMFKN
Chain of NAD-dependent protein deacylase sirtuin-5, mitochondrial (Q9NXA8 whole entry): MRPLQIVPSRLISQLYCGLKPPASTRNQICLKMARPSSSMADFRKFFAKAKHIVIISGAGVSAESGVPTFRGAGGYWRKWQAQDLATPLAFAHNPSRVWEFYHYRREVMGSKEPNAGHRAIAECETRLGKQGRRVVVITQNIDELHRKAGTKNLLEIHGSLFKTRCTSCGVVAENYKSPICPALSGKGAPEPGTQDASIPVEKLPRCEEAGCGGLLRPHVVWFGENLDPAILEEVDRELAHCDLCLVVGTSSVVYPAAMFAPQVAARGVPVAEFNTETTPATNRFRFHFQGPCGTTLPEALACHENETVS
Chain of Procathepsin L (P07711 whole entry): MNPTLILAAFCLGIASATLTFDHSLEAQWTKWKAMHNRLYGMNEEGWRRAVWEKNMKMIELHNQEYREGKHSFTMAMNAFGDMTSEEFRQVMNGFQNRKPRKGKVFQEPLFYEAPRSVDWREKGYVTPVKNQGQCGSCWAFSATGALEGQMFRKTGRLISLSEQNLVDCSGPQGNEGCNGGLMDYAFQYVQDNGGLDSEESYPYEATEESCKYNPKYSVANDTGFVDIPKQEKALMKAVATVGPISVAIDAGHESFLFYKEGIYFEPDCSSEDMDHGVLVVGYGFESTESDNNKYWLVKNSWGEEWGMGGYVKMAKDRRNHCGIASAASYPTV

Compound: CCOC(=O)Cc1csc(NC(=O)NC2(C(F)(F)F)Oc3ccccc3O2)n1
- IC50 (H9c2): 17.5 µM (active)
- IC50 (Procathepsin L): > 59.6 µM (not active)
- IC50 (Aspartyl aminopeptidase): 3.02 µM (active)

Compound: Cc1cc(N2C(=O)C(O)=C(C(=O)c3cc4ccccc4o3)C2c2ccc(Br)cc2)no1 (configuration not stated)
- IC50 [1]: > 39.8 µM (not active)
- EC50 (Streptococcus): 2.78 µM (active)
- IC50 [2]: 2.92 µM (active)
- AC50 [3]: 17.5 µM (active)
- EC50 [4]: 2.01 µM (active)

Compound: O=S(=O)(Nc1ccccc1N1CCOCC1)c1ccc(Cl)s1
- EC50 (Ion channel NompC [5]): > 29.9 µM (inactive)
- EC50 (Ion channel NompC [6]): > 29.9 µM (not active)
- EC50 (Mucolipin-3): 1.36 µM (active)

Compound: CC(C)C[C@@H](CC(=O)N[C@H](CC(=O)N[C@@H]1CCCC[C@H]1C(=O)N[C@H](CC(=O)N[C@@H](CCC(=O)O)CC(=O)O)CC(C)C)C(C)C)NC(=O)[C@@H]1CCCC[C@H]1N
- AC50 (Cytochrome P450 2C9): 39.8 µM (inconclusive)
